Data taken from article PMC12394658, “Discovery of Zharp1-163 as a dual inhibitor of ferroptosis and necroptosis for the treatment of inflammatory disorders and kidney injury” (Cell Death Discovery, 2025).

Assays:
RIPK1 = RIPK1 (Homo sapiens, UniProt Q13546); assay: ADP-Glo kinase assay with recombinant RIPK1 ([…] ATP, MBP substrate); binding curve also shown in Fig. 4A; format: biochemical
DAPK1 = DAPK1 (Homo sapiens, UniProt P53355); assay: biochemical; set-up: Kinase selectivity panel of 81 human kinases, ADP-Glo or HTRF, per cent inhibition at 1 uM
Method: (§1) We next sought to determine the binding affinity of Zharp1-163 for RIPK1 or RIPK3 via a binding assay (Fig. 4A). […] Further, we evaluated the selectivity of Zharp1-163 against a panel of 81 kinases (at 1000 nM). […] To elucidate the binding interactions between Zharp1-163 and RIPK1 kinase, we conducted molecular docking studies using the RIPK1 crystal structure (PDB ID: 4NEU). The predicted binding conformations and interaction patterns between Zharp1-163 and the RIPK1 kinase domain are presented in Fig. 4D, E. Like the cocrystallized ligand in the 4NEU crystal complex, Zharp1-163 was predicted to act as a typical type II kinase inhibitor, interacting with the DLG (Asp156-Leu157-Gly158)-out conformation of RIPK1 (Fig. 4D, E). The 2-aminoimidazo [1,2-a] pyridine moiety of Zharp1-163 formed hydrogen bonds with Met95 in the hinge region. Furthermore, the carboxylate group of Zharp1-163 established hydrogen bonds with Asp156 in the DLG-out region. Additionally, the saturated ring of Zharp1-163 was deeply embedded within the hydrophobic allosteric pocket formed by the residues Met66, Met67, Leu70, Val76, Leu129, and Leu159, which is created by the DLG-out conformation in RIPK1 (Fig. 4D, E).  Fig. 4 Zharp1-163 is a selective inhibitor of RIPK1 kinase activity. A Binding affinity curve of Zharp1-163 with RIPK1 and RIPK3. B In an in vitro kinase activity assay, recombinant RIPK1 was incubated with Zharp1-163, after which RIPK1 kinase activity was determined by measuring ATP levels via a luciferase reporter assay system. […] Kinases are marked with dots, where the color of each kinase indicates the level of inhibition achieved by Zharp1-163. D Predicted binding conformation of Zharp1-163. E Schematic representation of the interaction patterns between Zharp1-163 and the key residues in the binding pocket of the RIPK1 kinase. […] NIH3T3-RIPK3 cells were pretreated with the indicated concentrations of Zharp1-163 for 2 h and then treated with AP20187 (100 nM) for 24 h. Cell viability was determined by measuring ATP levels. […] HeLa-MLKL (1–190) cells were pretreated with the indicated concentrations of Zharp1-163 for 2 h and subsequently treated with AP20187 (100 nM) for 24 h. Cell viability was determined by measuring ATP levels. H Viability of IFNβ-primed MEFs at 18 h after stimulation with poly(I:C) plus z-VAD and treatment with Zharp1-163 (10 μM). I Effects of different concentrations of Zharp1-163 on WT or RIPK1 KO HT-29 cells. Cell viability was determined by measuring ATP levels. The data are presented as the mean ± SD of triplicate samples.

TRKB = target: T1, TRKB (Homo sapiens, UniProt Q16620); assay: biochemical; set-up: Kinase selectivity panel of 81 human kinases, ADP-Glo or HTRF, per cent inhibition at 1 uM
T1 construct: gene NTRK2
Method: as §1

NEK1 = NEK1 (Homo sapiens, UniProt Q96PY6); assay: biochemical; set-up: Kinase selectivity panel of 81 human kinases, ADP-Glo or HTRF, per cent inhibition at 1 uM
Method: as §1

CDK1/CycE1 = CDK1/CycE1 (Homo sapiens, UniProt P06493); assay: biochemical; set-up: Kinase selectivity panel of 81 human kinases, ADP-Glo or HTRF, per cent inhibition at 1 uM
Chain of CDK1/CycE1 (P06493 whole entry): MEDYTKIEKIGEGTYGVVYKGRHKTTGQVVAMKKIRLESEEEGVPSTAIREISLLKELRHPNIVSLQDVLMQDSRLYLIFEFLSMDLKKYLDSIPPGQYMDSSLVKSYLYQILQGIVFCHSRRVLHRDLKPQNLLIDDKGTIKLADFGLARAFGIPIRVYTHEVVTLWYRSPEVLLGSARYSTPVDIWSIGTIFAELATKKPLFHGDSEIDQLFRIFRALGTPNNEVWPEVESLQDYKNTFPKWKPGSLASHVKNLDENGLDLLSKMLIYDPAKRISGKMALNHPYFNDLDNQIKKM
Chain of CDK1/CycE1 (P24864 whole entry partner): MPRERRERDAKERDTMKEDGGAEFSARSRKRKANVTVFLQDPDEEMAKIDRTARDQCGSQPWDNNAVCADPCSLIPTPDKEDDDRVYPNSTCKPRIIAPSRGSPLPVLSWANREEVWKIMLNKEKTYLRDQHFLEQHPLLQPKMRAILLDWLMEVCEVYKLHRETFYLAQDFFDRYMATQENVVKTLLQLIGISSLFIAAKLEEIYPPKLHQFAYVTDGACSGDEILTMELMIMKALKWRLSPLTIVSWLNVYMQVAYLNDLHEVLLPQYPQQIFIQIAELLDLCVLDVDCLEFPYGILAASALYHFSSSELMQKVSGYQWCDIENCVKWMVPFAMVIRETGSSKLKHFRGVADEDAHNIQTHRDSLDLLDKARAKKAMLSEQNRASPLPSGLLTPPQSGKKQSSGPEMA
Method: as §1

CDK2/CycE1 = CDK2/CycE1 (Homo sapiens, UniProt P24941); assay: biochemical; set-up: Kinase selectivity panel of 81 human kinases, ADP-Glo or HTRF, per cent inhibition at 1 uM
Method: as §1

CaMK1α = target: T2, CaMK1α (Homo sapiens, UniProt Q14012); assay: biochemical; set-up: Kinase selectivity panel of 81 human kinases, ADP-Glo or HTRF, per cent inhibition at 1 uM
T2 construct: gene CAMK1
T2 sequence (Q14012 whole entry): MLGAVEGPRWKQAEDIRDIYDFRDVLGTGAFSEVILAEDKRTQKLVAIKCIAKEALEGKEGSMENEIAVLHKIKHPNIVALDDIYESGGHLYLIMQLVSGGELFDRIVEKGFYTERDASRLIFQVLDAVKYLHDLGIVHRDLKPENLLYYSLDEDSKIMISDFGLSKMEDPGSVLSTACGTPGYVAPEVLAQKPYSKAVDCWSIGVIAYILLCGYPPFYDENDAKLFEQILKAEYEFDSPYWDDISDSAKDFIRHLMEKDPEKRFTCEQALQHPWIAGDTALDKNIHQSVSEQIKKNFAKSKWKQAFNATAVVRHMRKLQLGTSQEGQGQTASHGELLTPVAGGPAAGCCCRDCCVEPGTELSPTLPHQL
Method: as §1

TIE2 = target: T3, TIE2 (Homo sapiens, UniProt Q02763); assay: biochemical; set-up: Kinase selectivity panel of 81 human kinases, ADP-Glo or HTRF, per cent inhibition at 1 uM
T3 construct: gene TEK
Method: as §1

CK1α = target: T4, CK1α (Homo sapiens, UniProt P48729); assay: biochemical; set-up: Kinase selectivity panel of 81 human kinases, ADP-Glo or HTRF, per cent inhibition at 1 uM
T4 construct: gene CSNK1A1
T4 sequence (P48729 whole entry): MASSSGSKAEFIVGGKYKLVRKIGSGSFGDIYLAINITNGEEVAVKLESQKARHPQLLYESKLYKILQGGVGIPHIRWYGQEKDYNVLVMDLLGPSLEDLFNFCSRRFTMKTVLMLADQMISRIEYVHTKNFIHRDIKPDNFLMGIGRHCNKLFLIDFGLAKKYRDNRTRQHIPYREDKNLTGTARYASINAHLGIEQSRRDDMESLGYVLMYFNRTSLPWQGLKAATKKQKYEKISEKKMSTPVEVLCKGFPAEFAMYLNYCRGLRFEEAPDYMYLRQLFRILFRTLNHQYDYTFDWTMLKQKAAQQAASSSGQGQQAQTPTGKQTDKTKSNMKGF
Method: as §1

PIK3CA = PIK3CA (Homo sapiens, UniProt P42336); assay: biochemical; set-up: Kinase selectivity panel of 81 human kinases, ADP-Glo or HTRF, per cent inhibition at 1 uM
Chain of PIK3CA (P42336 whole entry): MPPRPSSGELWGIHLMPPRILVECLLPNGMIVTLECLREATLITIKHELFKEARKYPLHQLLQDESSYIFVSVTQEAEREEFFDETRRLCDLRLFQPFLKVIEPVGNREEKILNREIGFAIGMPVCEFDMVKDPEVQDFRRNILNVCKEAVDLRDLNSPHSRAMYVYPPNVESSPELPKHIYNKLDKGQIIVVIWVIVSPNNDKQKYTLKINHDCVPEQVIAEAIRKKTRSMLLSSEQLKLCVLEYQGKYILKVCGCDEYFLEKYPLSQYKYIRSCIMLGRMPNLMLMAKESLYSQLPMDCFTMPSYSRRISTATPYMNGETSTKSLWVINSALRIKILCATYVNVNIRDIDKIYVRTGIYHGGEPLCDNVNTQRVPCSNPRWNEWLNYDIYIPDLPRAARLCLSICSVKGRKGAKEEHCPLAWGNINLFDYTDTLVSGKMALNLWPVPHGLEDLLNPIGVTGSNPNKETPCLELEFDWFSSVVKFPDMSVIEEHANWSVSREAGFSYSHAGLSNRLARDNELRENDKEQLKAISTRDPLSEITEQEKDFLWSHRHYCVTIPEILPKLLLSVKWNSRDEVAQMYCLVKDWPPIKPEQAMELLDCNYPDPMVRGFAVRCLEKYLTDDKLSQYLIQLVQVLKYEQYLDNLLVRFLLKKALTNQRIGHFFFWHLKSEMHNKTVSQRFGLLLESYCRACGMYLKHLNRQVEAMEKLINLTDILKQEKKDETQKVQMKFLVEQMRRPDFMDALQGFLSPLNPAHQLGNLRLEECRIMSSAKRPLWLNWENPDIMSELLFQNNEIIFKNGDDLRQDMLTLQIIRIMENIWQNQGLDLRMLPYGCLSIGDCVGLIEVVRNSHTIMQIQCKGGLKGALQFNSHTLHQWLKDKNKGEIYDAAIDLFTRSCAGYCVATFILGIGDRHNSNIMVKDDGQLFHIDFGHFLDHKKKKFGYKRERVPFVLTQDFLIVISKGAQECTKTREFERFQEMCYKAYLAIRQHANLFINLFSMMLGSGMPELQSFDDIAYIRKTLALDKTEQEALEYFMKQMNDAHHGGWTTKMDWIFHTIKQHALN
Chain of PIK3CA (P27986 whole entry partner): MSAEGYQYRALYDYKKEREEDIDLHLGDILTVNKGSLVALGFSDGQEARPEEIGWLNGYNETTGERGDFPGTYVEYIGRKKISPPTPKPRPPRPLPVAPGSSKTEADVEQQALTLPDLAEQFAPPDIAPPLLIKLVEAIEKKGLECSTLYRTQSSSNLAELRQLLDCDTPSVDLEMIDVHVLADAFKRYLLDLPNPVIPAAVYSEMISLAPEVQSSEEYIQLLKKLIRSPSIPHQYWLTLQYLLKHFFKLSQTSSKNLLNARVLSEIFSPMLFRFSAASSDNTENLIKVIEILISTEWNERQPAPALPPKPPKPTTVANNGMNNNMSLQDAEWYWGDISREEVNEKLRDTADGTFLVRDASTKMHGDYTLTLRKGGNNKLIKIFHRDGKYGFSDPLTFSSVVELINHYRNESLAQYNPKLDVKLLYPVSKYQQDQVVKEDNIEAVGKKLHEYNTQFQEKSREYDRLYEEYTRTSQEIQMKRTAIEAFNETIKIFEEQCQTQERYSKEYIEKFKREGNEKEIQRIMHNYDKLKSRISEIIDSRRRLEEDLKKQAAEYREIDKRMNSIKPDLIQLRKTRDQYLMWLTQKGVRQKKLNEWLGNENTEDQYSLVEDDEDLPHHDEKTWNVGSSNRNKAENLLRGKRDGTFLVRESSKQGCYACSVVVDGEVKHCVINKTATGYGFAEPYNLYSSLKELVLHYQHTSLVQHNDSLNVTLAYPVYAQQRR
Method: as §1

JNK1 = target: T5, JNK1 (Homo sapiens, UniProt P45983); assay: biochemical; set-up: Kinase selectivity panel of 81 human kinases, ADP-Glo or HTRF, per cent inhibition at 1 uM
T5 construct: gene MAPK8
Method: as §1

AMPKα1/β1/γ1 = target: T6, AMPKα1/β1/γ1 (Homo sapiens, UniProt Q13131); assay: biochemical; set-up: Kinase selectivity panel of 81 human kinases, ADP-Glo or HTRF, per cent inhibition at 1 uM
T6 construct: gene PRKAA1
T6 sequence (Q13131 whole entry): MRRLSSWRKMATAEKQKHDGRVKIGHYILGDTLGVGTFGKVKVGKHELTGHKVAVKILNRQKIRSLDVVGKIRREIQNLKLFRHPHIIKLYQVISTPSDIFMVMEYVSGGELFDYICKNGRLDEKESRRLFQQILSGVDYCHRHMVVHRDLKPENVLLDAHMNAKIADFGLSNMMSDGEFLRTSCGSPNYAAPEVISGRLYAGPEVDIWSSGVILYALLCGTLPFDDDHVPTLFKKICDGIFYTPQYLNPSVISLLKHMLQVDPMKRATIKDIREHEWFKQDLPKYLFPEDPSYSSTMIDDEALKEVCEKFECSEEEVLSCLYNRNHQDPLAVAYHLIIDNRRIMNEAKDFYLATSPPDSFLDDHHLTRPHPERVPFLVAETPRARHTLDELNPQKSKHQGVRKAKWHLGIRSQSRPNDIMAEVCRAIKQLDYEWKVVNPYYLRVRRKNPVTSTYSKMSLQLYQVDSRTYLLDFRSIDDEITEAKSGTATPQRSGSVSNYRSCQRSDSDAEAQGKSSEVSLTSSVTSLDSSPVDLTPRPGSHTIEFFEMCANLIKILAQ
T6 sequence (P54619 whole entry partner): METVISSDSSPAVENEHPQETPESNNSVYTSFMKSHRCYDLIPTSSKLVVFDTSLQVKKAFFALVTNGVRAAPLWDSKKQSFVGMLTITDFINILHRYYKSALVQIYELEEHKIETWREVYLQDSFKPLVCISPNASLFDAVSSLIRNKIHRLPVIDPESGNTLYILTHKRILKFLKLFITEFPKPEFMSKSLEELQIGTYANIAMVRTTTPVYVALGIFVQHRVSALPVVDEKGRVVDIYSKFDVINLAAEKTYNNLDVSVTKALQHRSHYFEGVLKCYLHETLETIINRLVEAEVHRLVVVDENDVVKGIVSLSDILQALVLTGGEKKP
T6 sequence (Q9Y478 whole entry partner): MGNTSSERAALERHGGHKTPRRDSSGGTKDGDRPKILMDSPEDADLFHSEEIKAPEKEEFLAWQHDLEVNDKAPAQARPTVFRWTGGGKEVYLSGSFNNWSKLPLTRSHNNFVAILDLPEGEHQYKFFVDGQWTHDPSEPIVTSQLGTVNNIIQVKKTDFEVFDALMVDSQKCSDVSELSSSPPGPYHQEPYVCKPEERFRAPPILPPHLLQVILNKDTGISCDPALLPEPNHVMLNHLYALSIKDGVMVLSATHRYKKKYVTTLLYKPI
Method: as §1

CDK5/p35NCK = target: T7, CDK5/p35NCK (Homo sapiens, UniProt Q00535); assay: biochemical; set-up: Kinase selectivity panel of 81 human kinases, ADP-Glo or HTRF, per cent inhibition at 1 uM
T7 construct: p35NCK
T7 sequence (Q00535 whole entry): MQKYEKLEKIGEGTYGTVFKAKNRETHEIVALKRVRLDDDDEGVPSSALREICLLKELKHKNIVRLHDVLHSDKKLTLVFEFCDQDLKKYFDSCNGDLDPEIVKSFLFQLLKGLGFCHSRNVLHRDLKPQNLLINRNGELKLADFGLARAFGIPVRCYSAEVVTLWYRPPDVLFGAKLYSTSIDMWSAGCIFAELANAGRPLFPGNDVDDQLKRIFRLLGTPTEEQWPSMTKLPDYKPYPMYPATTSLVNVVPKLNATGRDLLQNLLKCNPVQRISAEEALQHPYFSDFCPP
T7 sequence (Q15078 whole entry partner): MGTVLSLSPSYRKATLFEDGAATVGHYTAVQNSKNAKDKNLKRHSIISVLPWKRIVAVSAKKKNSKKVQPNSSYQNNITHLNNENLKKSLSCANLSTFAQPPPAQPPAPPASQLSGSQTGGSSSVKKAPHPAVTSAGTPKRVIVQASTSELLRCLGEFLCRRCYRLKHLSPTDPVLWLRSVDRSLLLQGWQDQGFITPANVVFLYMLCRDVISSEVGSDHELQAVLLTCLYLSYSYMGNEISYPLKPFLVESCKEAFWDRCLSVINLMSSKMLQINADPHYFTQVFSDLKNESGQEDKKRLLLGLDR
Method: as §1

CLK1 = CLK1 (Homo sapiens, UniProt P49759); assay: biochemical; set-up: Kinase selectivity panel of 81 human kinases, ADP-Glo or HTRF, per cent inhibition at 1 uM
Method: as §1

IC50 (RIPK1): ~406 nM
inhibition at 1 µM (DAPK1; replicate Data1): 9.17%
inhibition at 1 µM (DAPK1; replicate Data2): -5.62%
inhibition at 1 µM (TRKB; replicate Data1): 61.4%
inhibition at 1 µM (TRKB; replicate Data2): 58.1%
inhibition at 1 µM (NEK1; replicate Data1): 4.63%
inhibition at 1 µM (NEK1; replicate Data2): 13.4%
inhibition at 1 µM (CDK1/CycE1; replicate Data1): 5.77%
inhibition at 1 µM (CDK1/CycE1; replicate Data2): 6.95%
inhibition at 1 µM (CDK2/CycE1; replicate Data1): 3.25%
inhibition at 1 µM (CDK2/CycE1; replicate Data2): -0.65%
inhibition at 1 µM (CaMK1α; replicate Data1): -18.7%
inhibition at 1 µM (CaMK1α; replicate Data2): -6.35%
inhibition at 1 µM (TIE2; replicate Data1): 11.9%
inhibition at 1 µM (TIE2; replicate Data2): 26.5%
inhibition at 1 µM (CK1α; replicate Data1): -4.65%
inhibition at 1 µM (CK1α; replicate Data2): -16.6%
inhibition at 1 µM (PIK3CA; replicate Data1): 37.1%
inhibition at 1 µM (PIK3CA; replicate Data2): 35.8%
inhibition at 1 µM (JNK1; replicate Data1): 6.2%
inhibition at 1 µM (JNK1; replicate Data2): 5.09%
inhibition at 1 µM (AMPKα1/β1/γ1; replicate Data1): 12.1%
inhibition at 1 µM (AMPKα1/β1/γ1; replicate Data2): 6.96%
inhibition at 1 µM (CDK5/p35NCK; replicate Data1): 7.89%
inhibition at 1 µM (CDK5/p35NCK; replicate Data2): 1.25%
inhibition at 1 µM (CLK1; replicate Data1): 38.1%
inhibition at 1 µM (CLK1; replicate Data2): 33.2%
SMILES: Nc1cn2cc(-c3cnc4c(c3)N(C(=O)OC3CCCCC3)CCO4)ccc2n1 [Zharp1-163]
